In ChEMBL document CHEMBL5143550, “Thiol- and Disulfide-Containing Vancomycin Derivatives Against Bacterial Resistance and Biofilm Formation” (2021):
In brackets after ≈: the same amount, converted by molar mass.

Experiments:
Assay type in all cases: functional
Enterococcus faecalis [1] = experiment: Antibacterial activity against VanB-resistant Enterococcus faecalis ATCC 51299 assessed as inhibition of bacterial growth by standard broth microdilution susceptibility method
Enterococcus faecium [2] = experiment: Potency index, ratio of vancomycin MIC to test compound MIC for antibacterial activity against VanA-resistant Enterococcus faecium MMX0485 assessed as inhibition of bacterial growth by standard broth microdilution susceptibility method
Enterococcus faecalis [3] = experiment: Antibiofilm activity against VanB-resistant Enterococcus faecalis ATCC 51299 assessed as inhibition of biofilm formation in BHIG medium incubated for 24 hrs by resazurin assay
Staphylococcus aureus [4] = experiment: Antibacterial activity against heterogenous vancomycin-intermediate Staphylococcus aureus ATCC NRS24 assessed as inhibition of bacterial growth by standard broth microdilution susceptibility method
Clostridioides difficile [5] = experiment: Antibacterial activity against Clostridium difficile ATCC 43255 assessed as inhibition of bacterial growth by standard broth microdilution susceptibility method
Staphylococcus aureus [6] = experiment: Potency index, ratio of vancomycin MIC to test compound MIC for antibacterial activity against heterogenous vancomycin-intermediate Staphylococcus aureus ATCC NRS24 assessed as inhibition of bacterial growth by standard broth microdilution susceptibility method
Streptococcus pneumoniae [7] = experiment: Antibacterial activity against […] assessed as inhibition of bacterial growth by standard broth microdilution susceptibility method
Enterococcus faecium [8] = experiment: Antibacterial activity against VanA-resistant Enterococcus faecium MMX0485 assessed as inhibition of bacterial growth by standard broth microdilution susceptibility method
Staphylococcus aureus [9] = experiment: Antibacterial activity against vancomycin-intermediate Staphylococcus aureus ATCC NRS1 assessed as inhibition of bacterial growth by standard broth microdilution susceptibility method
Enterococcus faecalis [10] = experiment: Potency index, ratio of vancomycin MIC to test compound MIC for antibacterial activity against VanB-resistant Enterococcus faecalis ATCC 51299 assessed as inhibition of bacterial growth by standard broth microdilution susceptibility method
Staphylococcus aureus [11] = experiment: Antibacterial activity against Staphylococcus aureus ATCC 25923 assessed as inhibition of bacterial growth by standard broth microdilution susceptibility method
Moraxella catarrhalis = experiment: Antibacterial activity against Moraxella catarrhalis ATCC 8193 assessed as inhibition of bacterial growth by standard broth microdilution susceptibility method
Staphylococcus aureus [12] = experiment: Potency index, ratio of vancomycin MIC to test compound MIC for antibacterial activity against vancomycin-intermediate Staphylococcus aureus ATCC NRS1 assessed as inhibition of bacterial growth by standard broth microdilution susceptibility method
Enterococcus faecalis [13] = experiment: Antibacterial activity against VanB-resistant Enterococcus faecalis ATCC 51299 assessed as inhibition of bacterial growth in BHIG medium incubated for 24 hrs by resazurin assay
Enterococcus faecalis [14] = experiment: Antibacterial activity against VanB-resistant Enterococcus faecalis ATCC 51299 assessed as inhibition of colony formation in BHIG medium incubated for 24 hrs by resazurin assay
Staphylococcus aureus [15] = experiment: Antibacterial activity against methicillin-resistant Staphylococcus aureus ATCC 43300 assessed as inhibition of bacterial growth by standard broth microdilution susceptibility method
Enterococcus faecalis [16] = experiment: Antibiofilm activity against VanB-resistant Enterococcus faecalis ATCC 51299 assessed as inhibition of biofilm formation by measuring decrease in RFU in BHIG medium incubated for 24 hrs by resazurin assay
Enterococcus gallinarum [17] = experiment: Antibacterial activity against VanC-resistant Enterococcus gallinarum ATCC 700221 assessed as inhibition of bacterial growth by standard broth microdilution susceptibility method
Enterococcus gallinarum [18] = experiment: Potency index, ratio of vancomycin MIC to test compound MIC for antibacterial activity against VanC-resistant Enterococcus gallinarum ATCC 700221 assessed as inhibition of bacterial growth by standard broth microdilution susceptibility method
Enterococcus faecalis [19] = experiment: Antibiofilm activity against VanB-resistant Enterococcus faecalis ATCC 51299 assessed as inhibition of biofilm formation in BHIG medium incubated for 24 hrs by resazurin assay relative to vancomycin
Streptococcus pneumoniae [20] = experiment: Potency index, ratio of vancomycin MIC to test compound MIC for antibacterial activity against […] assessed as inhibition of bacterial growth by standard broth microdilution susceptibility method
Clostridioides difficile [21] = experiment: Potency index, ratio of vancomycin MIC to test compound MIC for antibacterial activity against Clostridium difficile ATCC 43255 assessed as inhibition of bacterial growth by standard broth microdilution susceptibility method

SMILES	MIC (Enterococcus faecalis [1])	Ratio (Enterococcus faecium [2])	MBIC (Enterococcus faecalis [3])	MIC (Staphylococcus aureus [4])	MIC (Clostridioides difficile [5])	Ratio (Staphylococcus aureus [6])	MIC (Streptococcus pneumoniae [7])	MIC (Enterococcus faecium [8])	MIC (Staphylococcus aureus [9])	Ratio (Enterococcus faecalis [10])	MIC (Staphylococcus aureus [11])	MIC (Moraxella catarrhalis)	Ratio (Staphylococcus aureus [12])	inhibition (INH) (Enterococcus faecalis [13])	Activity (Enterococcus faecalis [14])	MIC (Staphylococcus aureus [15])	inhibition (INH) (Enterococcus faecalis [16])	MIC (Enterococcus gallinarum [17])	Ratio (Enterococcus gallinarum [18])	Ratio (Enterococcus faecalis [19])	also measured
CCCCCCCCCCCSSCCNC(=O)[C@H]1NC(=O)[C@H]2NC(=O)[C@H](NC(=O)[C@@H]3NC(=O)[C@H](CC(N)=O)NC(=O)[C@H](NC(=O)[C@@H](CC(C)C)NC)[C@H](O)c4ccc(c(Cl)c4)Oc4cc3cc(c4O[C@@H]3O[C@H](CO)[C@@H](O)[C@H](O)[C@H]3O[C@H]3C[C@](C)(N)[C@H](O)[C@H](C)O3)Oc3ccc(cc3Cl)[C@H]2O)c2ccc(O)c(c2)-c2c(O)cc(O)cc21	0.25 µg/mL (≈ 0.148 µM)	16	2 µg/mL	1 µg/mL (≈ 0.59 µM)	0.12 µg/mL (≈ 0.0708 µM)	16	0.25 µg/mL (≈ 0.148 µM)	2 µg/mL (≈ 1.18 µM)	0.5 µg/mL (≈ 0.295 µM)	16	1 µg/mL (≈ 0.59 µM)	0.5 µg/mL (≈ 0.295 µM)	16	99%	2 µg/mL	1 µg/mL (≈ 0.59 µM)	92%	4 µg/mL (≈ 2.36 µM)			
CN[C@H](CC(C)C)C(=O)N[C@H]1C(=O)N[C@@H](CC(N)=O)C(=O)N[C@H]2C(=O)N[C@H]3C(=O)N[C@H](C(=O)N[C@H](C(=O)NCCSSCCCCCCCCCCC[N+](C)(C)C)c4cc(O)cc(O)c4-c4cc3ccc4O)[C@H](O)c3ccc(c(Cl)c3)Oc3cc2cc(c3O[C@@H]2O[C@H](CO)[C@@H](O)[C@H](O)[C@H]2O[C@H]2C[C@](C)(N)[C@H](O)[C@H](C)O2)Oc2ccc(cc2Cl)[C@H]1O	2 µg/mL	8	4 µg/mL	8 µg/mL	1 µg/mL		0.12 µg/mL	16 µg/mL	0.25 µg/mL	8	1 µg/mL	1 µg/mL		98%	4 µg/mL	0.5 µg/mL	84%	2 µg/mL	8	16	
CN[C@H](CC(C)C)C(=O)N[C@H]1C(=O)N[C@@H](CC(N)=O)C(=O)N[C@H]2C(=O)N[C@H]3C(=O)N[C@H](C(=O)N[C@H](C(=O)NCCSSCCNC(=O)CCSC(c4ccccc4)(c4ccccc4)c4ccccc4)c4cc(O)cc(O)c4-c4cc3ccc4O)[C@H](O)c3ccc(c(Cl)c3)Oc3cc2cc(c3O[C@@H]2O[C@H](CO)[C@@H](O)[C@H](O)[C@H]2O[C@H]2C[C@](C)(N)[C@H](O)[C@H](C)O2)Oc2ccc(cc2Cl)[C@H]1O	2 µg/mL (≈ 1.04 µM)	8	2 µg/mL			8				8	8 µg/mL (≈ 4.18 µM)		8	100%	2 µg/mL	4 µg/mL (≈ 2.09 µM)	97%	1 µg/mL (≈ 0.522 µM)	8	32	
CN[C@H](CC(C)C)C(=O)N[C@H]1C(=O)N[C@@H](CC(N)=O)C(=O)N[C@H]2C(=O)N[C@H]3C(=O)N[C@H](C(=O)N[C@H](C(=O)NCCS)c4cc(O)cc(O)c4-c4cc3ccc4O)[C@H](O)c3ccc(c(Cl)c3)Oc3cc2cc(c3O[C@@H]2O[C@H](CO)[C@@H](O)[C@H](O)[C@H]2O[C@H]2C[C@](C)(N)[C@H](O)[C@H](C)O2)Oc2ccc(cc2Cl)[C@H]1O	2 µg/mL (≈ 1.33 µM)		4 µg/mL								4 µg/mL (≈ 2.65 µM)			100%	4 µg/mL	4 µg/mL (≈ 2.65 µM)	99%	2 µg/mL (≈ 1.33 µM)		16	
CN[C@H](CC(C)C)C(=O)N[C@H]1C(=O)N[C@@H](CC(N)=O)C(=O)N[C@H]2C(=O)N[C@H]3C(=O)N[C@H](C(=O)N[C@H](C(=O)NCCSSCCCCC[N+](C)(C)C)c4cc(O)cc(O)c4-c4cc3ccc4O)[C@H](O)c3ccc(c(Cl)c3)Oc3cc2cc(c3O[C@@H]2O[C@H](CO)[C@@H](O)[C@H](O)[C@H]2O[C@H]2C[C@](C)(N)[C@H](O)[C@H](C)O2)Oc2ccc(cc2Cl)[C@H]1O	8 µg/mL	8	16 µg/mL	> 32 µg/mL	≤ 0.015 µg/mL		0.06 µg/mL	16 µg/mL	1 µg/mL	8	1 µg/mL	2 µg/mL		97%	16 µg/mL	0.5 µg/mL	87%	4 µg/mL	8		
CN[C@H](CC(C)C)C(=O)N[C@H]1C(=O)N[C@@H](CC(N)=O)C(=O)N[C@H]2C(=O)N[C@H]3C(=O)N[C@H](C(=O)N[C@H](C(=O)NCCSSCC[N+](C)(C)C)c4cc(O)cc(O)c4-c4cc3ccc4O)[C@H](O)c3ccc(c(Cl)c3)Oc3cc2cc(c3O[C@@H]2O[C@H](CO)[C@@H](O)[C@H](O)[C@H]2O[C@H]2C[C@](C)(N)[C@H](O)[C@H](C)O2)Oc2ccc(cc2Cl)[C@H]1O	16 µg/mL	8	16 µg/mL	> 32 µg/mL	≤ 0.015 µg/mL		0.25 µg/mL	32 µg/mL	0.5 µg/mL	8	1 µg/mL	2 µg/mL		100%	16 µg/mL	0.5 µg/mL	91%	4 µg/mL	8		
CN[C@H](CC(C)C)C(=O)N[C@H]1C(=O)N[C@@H](CC(N)=O)C(=O)N[C@H]2C(=O)N[C@H]3C(=O)N[C@H](C(=O)N[C@H](C(=O)NCCCCCS)c4cc(O)cc(O)c4-c4cc3ccc4O)[C@H](O)c3ccc(c(Cl)c3)Oc3cc2cc(c3O[C@@H]2O[C@H](CO)[C@@H](O)[C@H](O)[C@H]2O[C@H]2C[C@](C)(N)[C@H](O)[C@H](C)O2)Oc2ccc(cc2Cl)[C@H]1O	1 µg/mL (≈ 0.645 µM)		32 µg/mL	> 32 µg/mL	0.06 µg/mL (≈ 0.0387 µM)		≤ 0.03 µg/mL	1 µg/mL (≈ 0.645 µM)	2 µg/mL (≈ 1.29 µM)		8 µg/mL (≈ 5.16 µM)	4 µg/mL (≈ 2.58 µM)		100%	32 µg/mL	8 µg/mL (≈ 5.16 µM)	99%	0.5 µg/mL (≈ 0.322 µM)			Ratio (Streptococcus pneumoniae [20]): 16; Ratio (Clostridioides difficile [21]): 16
CN[C@H](CC(C)C)C(=O)N[C@H]1C(=O)N[C@@H](CC(N)=O)C(=O)N[C@H]2C(=O)N[C@H]3C(=O)N[C@H](C(=O)N[C@H](C(=O)NCCCS)c4cc(O)cc(O)c4-c4cc3ccc4O)[C@H](O)c3ccc(c(Cl)c3)Oc3cc2cc(c3O[C@@H]2O[C@H](CO)[C@@H](O)[C@H](O)[C@H]2O[C@H]2C[C@](C)(N)[C@H](O)[C@H](C)O2)Oc2ccc(cc2Cl)[C@H]1O	4 µg/mL (≈ 2.63 µM)		4 µg/mL	> 32 µg/mL	0.12 µg/mL (≈ 0.0788 µM)		≤ 0.03 µg/mL	1 µg/mL (≈ 0.657 µM)	8 µg/mL (≈ 5.25 µM)		4 µg/mL (≈ 2.63 µM)	16 µg/mL (≈ 10.5 µM)		100%	4 µg/mL	4 µg/mL (≈ 2.63 µM)	95%	1 µg/mL (≈ 0.657 µM)		16	
CCCCCCSSCCNC(=O)[C@H]1NC(=O)[C@H]2NC(=O)[C@H](NC(=O)[C@@H]3NC(=O)[C@H](CC(N)=O)NC(=O)[C@H](NC(=O)[C@@H](CC(C)C)NC)[C@H](O)c4ccc(c(Cl)c4)Oc4cc3cc(c4O[C@@H]3O[C@H](CO)[C@@H](O)[C@H](O)[C@H]3O[C@H]3C[C@](C)(N)[C@H](O)[C@H](C)O3)Oc3ccc(cc3Cl)[C@H]2O)c2ccc(O)c(c2)-c2c(O)cc(O)cc21	0.25 µg/mL (≈ 0.154 µM)	16	2 µg/mL	0.5 µg/mL (≈ 0.308 µM)	0.5 µg/mL (≈ 0.308 µM)	16	0.06 µg/mL (≈ 0.0369 µM)	16 µg/mL (≈ 9.85 µM)	0.5 µg/mL (≈ 0.308 µM)	16	0.12 µg/mL (≈ 0.0739 µM)	2 µg/mL (≈ 1.23 µM)	16	100%	2 µg/mL	0.12 µg/mL (≈ 0.0739 µM)	100%	4 µg/mL (≈ 2.46 µM)			
